In paper PMC6215199 (Toxins, 2018):
Entries after “also recorded” stand apart in the source; their conditions may differ.

Tests used:
[1] = target: T1, Batx-I (Bothrops atrox, UniProt P0DJE1); experiment: biochemical; format: biochemical
[2] = target: T1, Batx-I; format: biochemical
[3] = tested on: BaP1; conditions: EDTA chelates the catalytic Zn2+ ion; cited from earlier work
[4] = target: T1, Batx-I; conditions: cited from earlier work

T1 sequence (P0DJE1 whole entry, looked up): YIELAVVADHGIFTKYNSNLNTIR

C=C(C)[C@@H]1CC[C@]2(CO)CC[C@]3(C)[C@H](CC[C@@H]4[C@@]5(C)CC[C@H](O)C(C)(C)[C@@H]5CC[C@]43C)[C@@H]12 [Betulin]
Inhibition of metalloproteinase proteolytic activity (in words) [1]: negligible activity | IC50 [1]: 1470 ± 130 µM

C=C(C)[C@@H]1CC[C@]2(C(=O)O)CC[C@]3(C)[C@H](CC[C@@H]4[C@@]5(C)CC[C@H](O)C(C)(C)[C@@H]5CC[C@]43C)[C@@H]12 [Betulinic acid]
IC50 [1]: 115 ± 16 µM | Type of inhibition [2]: competitive inhibitors | ΔG^∘ Experimental [2]: -4.5 ± 0.1 kcal/mol

O=C(O)CN(CCN(CC(=O)O)CC(=O)O)CC(=O)O [EDTA, Ethylenediamine-tetraacetic acid]
Effect on proteolytic activity of BaP1 [3]: eliminated | Effect on proteolytic activity of Batx-I [4]: eliminated

C[C@H]1[C@H](C)CC[C@]2(C(=O)O)CC[C@]3(C)C(=CC[C@@H]4[C@@]5(C)C[C@@H](O)[C@H](O)[C@@](C)(CO)[C@@H]5[C@H](O)C[C@]43C)[C@H]12 [Madecassic acid]
IC50 [1]: 540 ± 80 µM

CC1(C)CC[C@]2(C(=O)O)CC[C@]3(C)C(=CC[C@@H]4[C@@]5(C)CC[C@H](O)C(C)(C)[C@@H]5CC[C@]43C)[C@@H]2C1 [Oleanolic acid]
IC50 [1]: 360 ± 70 µM | Type of inhibition [2]: competitive inhibitors | ΔG^∘ Experimental [2]: -3.7 ± 0.1 kcal/mol

C[C@H]1[C@H](C)CC[C@]2(C(=O)O)CC[C@]3(C)C(=CC[C@@H]4[C@@]5(C)CC[C@H](O)C(C)(C)[C@@H]5CC[C@]43C)[C@H]12 [Ursolic acid]
IC50 [1]: 220 ± 40 µM | Type of inhibition [2]: competitive inhibitors | ΔG^∘ Experimental [2]: -3.5 ± 0.1 kcal/mol

CC1CCC2(C)CCC3(C)C(=CCC4C5(C)CCC(O)C(C)(C(=O)O)C5CCC43C)C2C1C (stereo not drawn) [β -Boswellic acid]
Inhibition of metalloproteinase proteolytic activity (in words) [1]: negligible activity; also recorded: does not inhibit | activity at 2000 µM ([1]; read-out: Batx-I proteolytic activity still observed): 70%
